Results on 14 compounds are retold here after US12433953B2, “Compositions and methods related to tumor activated antibodies targeting EGFR and effector cell antigens” (Janux Therapeutics, Inc., priority 2021, dated 2025).

Experiment [1] concerns the target EGFR IgG binding to the EGFR antigen. The experiment in a line: ELISA competitive inhibition of EGFR IgG binding to EGFR antigen. Conditions: for IC50: read-out: IC50 for peptide inhibition of EGFR IgG binding to EGFR antigen, Table 13. (ELISA stands for enzyme-linked immunosorbent assay.)
Another experiment has as its target EGFR IgG. Nature of the experiment: ELISA binding of peptides to EGFR IgG. The note with it: Table 12; antibody concentration for half maximal signal; read-out: EC50 for peptide binding to EGFR IgG.
Experiment [2] deals with EGFR Fab binding to the EGFR antigen. The experiment in a line: ELISA competitive inhibition of EGFR Fab binding to EGFR antigen. Conditions: for IC50: read-out: IC50 for peptide inhibition of αEGFR Fab binding to EGFR antigen.
The next experiment deals with EGFR Fab. Nature of the experiment: ELISA binding of peptides to EGFR Fab. The note with it: for EC50: read-out: EC50 for peptide binding to αEGFR Fab.
The mark [3] stands for this setting: Table 27, peptide-8 optimization.
Where [4] appears, read: Table 25, peptide-8 optimization.

Like-named read-outs stand apart in the source and are kept apart here. Where only a bound is given, the exact number is not on record here.

As to `CSCC[C@@H]1NC(=O)[C@H](Cc2c[nH]cn2)NC(=O)[C@H](CO)NC(=O)CNC(=O)[C@H](CC(=O)O)NC(=O)[C@H](Cc2c[nH]cn2)NC(=O)[C@@H](NC(=O)[C@H](CO)NC(=O)[C@@H](NC(=O)[C@@H](N)Cc2c[nH]c3ccccc23)C(C)C)CSSC[C@@H](C(=O)N[C@@H](Cc2ccccc2)C(=O)N[C@@H](Cc2c[nH]cn2)C(=O)O)NC(=O)[C@H]([C@@H](C)O)NC1=O` [Peptide-4], the IC50 in experiment [1] was over 300 nM.
On to `CC(C)[C@@H]1NC(=O)[C@H](CCCNC(=N)N)NC(=O)[C@H](CC(=O)O)NC(=O)[C@H](Cc2c[nH]c3ccccc23)NC(=O)[C@H](CCC(N)=O)NC(=O)[C@@H](NC(=O)[C@@H](N)CC(N)=O)CSSC[C@@H](C(=O)N[C@@H](CO)C(=O)O)NC(=O)[C@H](C)NC(=O)[C@H](Cc2ccc(O)cc2)NC(=O)[C@H]([C@@H](C)O)NC(=O)[C@H](Cc2c[nH]cn2)NC(=O)[C@H](CCC(=O)O)NC1=O` [Peptide-3], for which the EC50 on EGFR IgG turned out to be 413 nM. The IC50 in experiment [1] was over 300 nM.
`CSCC[C@@H]1NC(=O)[C@H](CC(C)C)NC(=O)[C@H](Cc2ccccc2)NC(=O)[C@H](Cc2c[nH]cn2)NC(=O)[C@H](CCC(N)=O)NC(=O)[C@@H](NC(=O)CNC(=O)[C@@H](N)CC(C)C)CSSC[C@@H](C(=O)NCC(=O)O)NC(=O)[C@H]([C@@H](C)O)NC(=O)[C@H](C)NC(=O)[C@H](CC(C)C)NC(=O)[C@H](CCCCN)NC1=O` [Peptide-11]: the IC50 in experiment [2] (Table 17) is over 300 nM. Also, the EC50 at EGFR Fab (Table 15) is 42 nM.
As to `CC[C@H](C)[C@@H]1NC(=O)[C@H](CC(C)C)NC(=O)[C@H](Cc2c[nH]cn2)NC(=O)[C@H](C)NC(=O)[C@H](CC(=O)O)NC(=O)[C@H](C)NC(=O)[C@@H](NC(=O)[C@H](CO)NC(=O)[C@@H](N)[C@@H](C)O)CSSC[C@@H](C(=O)N[C@@H](CO)C(=O)O)NC(=O)[C@H](CO)NC(=O)[C@@H]2CCCN2C(=O)[C@H](C)NC1=O` [Peptide-2], the EC50 at EGFR IgG was 84 nM. Further, the IC50 in experiment [1] is over 300 nM.
Turning to `CC[C@H](C)[C@@H]1NC(=O)[C@@H]2CCCN2C(=O)[C@H](CCCCN)NC(=O)[C@H](C)NC(=O)[C@@H]2CCCN2C(=O)[C@H](CC(=O)O)NC(=O)[C@H](CC(N)=O)NC(=O)[C@H](Cc2c[nH]cn2)NC(=O)[C@H](Cc2ccc(O)cc2)NC(=O)[C@H](C)NC(=O)[C@@H](NC(=O)[C@@H]2CCCN2)CSSC[C@@H](C(=O)N[C@@H](CO)C(=O)O)NC1=O` [Peptide-45, PCAYHNDPAKPICS], the “potency as peptide mask (in words)” value in experiment [2] (binding and inhibition data relative to peptide-8) was “more potent peptide masks”. In addition, in experiment [2] (setting [3]), the IC50 turned out to be 543 nM. Also, the EC50 at EGFR Fab (setting [4]) worked out at 10.3 nM.
Take `CSCC[C@H](N)C(=O)N[C@@H](CC(N)=O)C(=O)N[C@H]1CSSC[C@@H](C(=O)N[C@@H](CC(C)C)C(=O)N[C@H](C(=O)O)C(C)C)NC(=O)[C@H](Cc2ccc(O)cc2)NC(=O)[C@H](CCC(=O)O)NC(=O)[C@H](C(C)C)NC(=O)[C@H](Cc2c[nH]c3ccccc23)NC(=O)[C@H](CC(C)C)NC(=O)[C@H](CCCNC(=N)N)NC(=O)[C@H](CC(N)=O)NC(=O)[C@H](CC(C)C)NC1=O` [Peptide-5]: the EC50 at EGFR IgG was found to be 2 nM. The IC50 in experiment [1] is over 300 nM.
In the case of `CSCC[C@@H]1NC(=O)[C@H](C(C)C)NC(=O)[C@H]([C@@H](C)O)NC(=O)[C@@H](NC(=O)[C@H](C)N)CSSC[C@@H](C(=O)N[C@H](C(=O)O)C(C)C)NC(=O)[C@H](CCCNC(=N)N)NC(=O)[C@H](C(C)C)NC(=O)[C@H](CCC(=O)O)NC(=O)[C@H](CCC(N)=O)NC(=O)[C@H](CCCNC(=N)N)NC(=O)[C@H](C)NC(=O)CNC1=O` [Peptide-13], in experiment [2] (Table 18), the IC50 was over 300 nM. The EC50 at EGFR Fab (Table 16) was over 1000 nM.
Consider `CC[C@H](C)[C@@H]1NC(=O)[C@H](Cc2c[nH]cn2)NC(=O)[C@H](CO)NC(=O)[C@H](CCCNC(=N)N)NC(=O)[C@@H](NC(=O)[C@@H]2CCCN2)CSSC[C@@H](C(=O)N[C@H](C(=O)O)C(C)C)NC(=O)[C@H]([C@@H](C)CC)NC(=O)[C@@H]2CCCN2C(=O)[C@H](CCCCN)NC(=O)[C@H](C)NC(=O)[C@H](C(C)C)NC(=O)[C@H](CC(=O)O)NC1=O` [Peptide-8], for which the “inhibiting EGFR Fab binding to the EGFR antigen (in words)” value in experiment [2] (among peptides of Table 14) was “most effective at inhibiting EGFR Fab binding to the EGFR antigen”. Besides, the “binding affinity for EGFR Fab (in words)” value in the experiment on EGFR Fab (among peptides of Table 14) was “strongest binding affinities (lowest EC50s)”. For the same compound, the EC50 on EGFR Fab (Table 15) came out at 8 nM; on EGFR Fab (Table 24, peptide-8 optimization) it was 700 nM.
As to `CC[C@H](C)[C@@H]1NC(=O)[C@H](CC(=O)O)NC(=O)[C@H](Cc2ccccc2)NC(=O)[C@H](Cc2c[nH]cn2)NC(=O)[C@H](CO)NC(=O)[C@H](CC(N)=O)NC(=O)[C@@H](NC(=O)[C@@H]2CCCN2)CSSC[C@@H](C(=O)N[C@@H](CC(C)C)C(=O)O)NC(=O)[C@H]([C@@H](C)CC)NC(=O)[C@@H]2CCCN2C(=O)[C@H](CCCCN)NC(=O)[C@H](C)NC1=O` [Peptide-44], in experiment [2] (setting [3]), the IC50 is 6570 nM. In addition, at EGFR Fab (setting [4]), the EC50 came out at 341 nM.
Regarding `CSCC[C@@H]1NC(=O)[C@H](CC(C)C)NC(=O)[C@H](CO)NC(=O)[C@H](CCCNC(=N)N)NC(=O)[C@@H](NC(=O)[C@H](Cc2c[nH]c3ccccc23)NC(=O)[C@@H](N)CC(=O)O)CSSC[C@@H](C(=O)N2CCC[C@H]2C(=O)O)NC(=O)[C@H](CC(C)C)NC(=O)[C@H](CC(=O)O)NC(=O)[C@H]([C@@H](C)O)NC(=O)[C@H](Cc2ccc(O)cc2)NC(=O)[C@H](CO)NC1=O` [Peptide-1], the EC50 at EGFR IgG came out at 52 nM. The IC50 in experiment [1] was over 300 nM.
In the case of `CSCC[C@@H]1NC(=O)[C@H](Cc2c[nH]cn2)NC(=O)[C@H](CO)NC(=O)[C@@H](NC(=O)[C@@H](N)CCC(=O)O)CSSC[C@@H](C(=O)N[C@@H](CO)C(=O)O)NC(=O)[C@H](CC(C)C)NC(=O)[C@@H]2CCCN2C(=O)[C@H](Cc2c[nH]c3ccccc23)NC(=O)[C@H](CCCNC(=N)N)NC(=O)[C@H]([C@@H](C)O)NC(=O)CNC(=O)[C@H](CCC(=O)O)NC1=O` [Peptide-16], the IC50 in experiment [2] (Table 18) is over 300 nM. Also, on EGFR Fab (Table 16), the EC50 came out at 34 nM.
For `CC[C@H](C)[C@@H]1NC(=O)[C@@H]2CCCN2C(=O)[C@H](CCCCN)NC(=O)[C@H](C)NC(=O)[C@H](CC(C)C)NC(=O)[C@H](CC(=O)O)NC(=O)[C@H](Cc2ccc(O)cc2)NC(=O)[C@H](Cc2c[nH]cn2)NC(=O)[C@H](CO)NC(=O)[C@H](CC(N)=O)NC(=O)[C@@H](NC(=O)[C@@H]2CCCN2)CSSC[C@@H](C(=O)N[C@H](C(=O)O)[C@@H](C)O)NC1=O` [Peptide-43], in experiment [2] (setting [3]), the IC50 turned out to be 4230 nM. On EGFR Fab (setting [4]), the EC50 turned out to be 186 nM.
As to `CC[C@H](C)[C@@H]1NC(=O)[C@@H]2CCCN2C(=O)[C@H](CCCCN)NC(=O)[C@H](C)NC(=O)[C@H]([C@@H](C)O)NC(=O)[C@H](CC(=O)O)NC(=O)[C@H](Cc2ccccc2)NC(=O)[C@H](Cc2c[nH]cn2)NC(=O)[C@H](CO)NC(=O)[C@H]([C@@H](C)O)NC(=O)[C@@H](NC(=O)[C@@H]2CCCN2)CSSC[C@@H](C(=O)N[C@@H](C)C(=O)O)NC1=O` [Peptide-39], the IC50 in experiment [2] (setting [3]) turned out to be 2790 nM. Further, the EC50 at EGFR Fab (setting [4]) is 206 nM.
In the case of `CC(C)[C@@H]1NC(=O)[C@H](Cc2c[nH]c3ccccc23)NC(=O)[C@H]([C@@H](C)O)NC(=O)[C@H](CC(N)=O)NC(=O)[C@H](CC(=O)O)NC(=O)[C@H](CCC(N)=O)NC(=O)CNC(=O)[C@@H](NC(=O)[C@@H](N)Cc2ccc(O)cc2)CSSC[C@@H](C(=O)N[C@@H](Cc2ccccc2)C(=O)O)NC(=O)CNC(=O)[C@H](CCC(=O)O)NC(=O)[C@H](CCCNC(=N)N)NC1=O` [Peptide-6], the EC50 was found to be 0.3 nM at EGFR IgG and 458 nM on EGFR Fab (Table 16). The “inhibiting EGFR IgG binding to the EGFR antigen (in words)” value in experiment [1] (among peptide-1 to peptide-6) is recorded as “most effective at inhibiting EGFR IgG binding to the EGFR antigen”.

As a reminder, the IC50 is the point on the concentration scale where inhibition reaches its midpoint. A word on the EC50: it is the concentration giving half of the maximal effect.
